Source: US20240415914A1, “Water Dispersible Cannabinoid Compositions” (priority 2021, published 2024)
Like-named read-outs stand apart in the source and are kept apart here.

Columns and labels:
[1] = type: physicochemical; conditions: stored at room temperature (21-25° C.)
Experimental: At each time period, 0.05 g of powder was dissolved in 10 ml-15 of ethanol, diluted to fall within the analytical range, and injected into the LCMSMS for analysis.

[2] = Stability of cannabinoid and Vitamin E components of Beverage 2 (AB Red) stored at 8° C. and 21-25° C., LCMSMS over 570 days
Experimental: The LCMSMS was calibrated for 0-50 ng/ml cannabinoids with the same resin material used in the preparation of the concentrates. At each time period, 100 μml of beverage was diluted with 10 ml of methanol and injected into the LCMSMS for analysis.

CCCc1cc(O)c2c(c1)OC(C)(C)[C@@H]1CCC(C)=C[C@@H]21 [THCV, delta-9-tetrahydrocannabivarin]
Stability in Powder Concentrate (content by LCMSMS) ([1]; day 0): 0.680 mg/g powder | Stability in Powder Concentrate (content by LCMSMS) ([1]; day 1): 0.685 mg/g powder | Stability in Powder Concentrate (content by LCMSMS) ([1]; day 2): 0.699 mg/g powder | Stability in Powder Concentrate (content by LCMSMS) ([1]; day 3): 0.698 mg/g powder | Stability in Powder Concentrate (content by LCMSMS) ([1]; day 5): 0.676 mg/g powder | Stability in Powder Concentrate (content by LCMSMS) ([1]; day 8): 0.685 mg/g powder | Stability in Powder Concentrate (content by LCMSMS) ([1]; day 9): 0.693 mg/g powder | Stability in Powder Concentrate (content by LCMSMS) ([1]; day 10): 0.706 mg/g powder | Stability in Powder Concentrate (content by LCMSMS) ([1]; day 11): 0.708 mg/g powder | Stability in Powder Concentrate (content by LCMSMS) ([1]; day 12): 0.698 mg/g powder | Stability in Powder Concentrate (content by LCMSMS) ([1]; day 15): 0.684 mg/g powder | Stability in Powder Concentrate (content by LCMSMS) ([1]; day 16): 0.658 mg/g powder | Stability in Powder Concentrate (content by LCMSMS) ([1]; day 17): 0.681 mg/g powder | Stability in Powder Concentrate (content by LCMSMS) ([1]; day 18): 0.690 mg/g powder | Stability in Powder Concentrate (content by LCMSMS) ([1]; day 19): 0.705 mg/g powder | Stability in Powder Concentrate (content by LCMSMS) ([1]; day 22): 0.703 mg/g powder | Stability in Powder Concentrate (content by LCMSMS) ([1]; day 23): 0.687 mg/g powder | Stability in Powder Concentrate (content by LCMSMS) ([1]; day 24): 0.668 mg/g powder | Stability in Powder Concentrate (content by LCMSMS) ([1]; day 25): 0.689 mg/g powder | Stability in Powder Concentrate (content by LCMSMS) ([1]; day 26): 0.686 mg/g powder | Stability in Powder Concentrate (content by LCMSMS) ([1]; day 29): 0.706 mg/g powder | Stability in Powder Concentrate (content by LCMSMS) ([1]; day 30): 0.659 mg/g powder | Stability in Powder Concentrate (content by LCMSMS) ([1]; day 60): 0.702 mg/g powder | Stability in Powder Concentrate (content by LCMSMS) ([1]; day 90): 0.707 mg/g powder | Stability in Powder Concentrate (content by LCMSMS) ([1]; day 120): 0.658 mg/g powder | Stability in Powder Concentrate (content by LCMSMS) ([1]; day 150): 0.695 mg/g powder | Stability in Powder Concentrate (content by LCMSMS) ([1]; day 180): 0.685 mg/g powder | Stability in Powder Concentrate (content by LCMSMS) ([1]; day 210): 0.662 mg/g powder | Stability in Powder Concentrate (content by LCMSMS) ([1]; day 240): 0.700 mg/g powder | Stability in Powder Concentrate (content by LCMSMS) ([1]; day 270): 0.670 mg/g powder | Stability in Powder Concentrate (content by LCMSMS) ([1]; day 300): 0.685 mg/g powder | Stability in Powder Concentrate (content by LCMSMS) ([1]; day 330): 0.691 mg/g powder | Stability in Powder Concentrate (content by LCMSMS) ([1]; day 360): 0.668 mg/g powder | Stability in Powder Concentrate (content by LCMSMS) ([1]; day 390): 0.680 mg/g powder | Stability in Powder Concentrate (content by LCMSMS) ([1]; day 420): 0.671 mg/g powder | Stability in Powder Concentrate (content by LCMSMS) ([1]; day 450): 0.680 mg/g powder | Stability in Powder Concentrate (content by LCMSMS) ([1]; day 480): 0.695 mg/g powder | Stability in Powder Concentrate (content by LCMSMS) ([1]; day 510): 0.696 mg/g powder | Stability in Powder Concentrate (content by LCMSMS) ([1]; day 540): 0.664 mg/g powder | Stability in Powder Concentrate (content by LCMSMS) ([1]; day 570): 0.686 mg/g powder | Stability of Cannabinoids in AB Red ([2]; 8° C., 0 days): 3.22 µg/mL | Stability of Cannabinoids in AB Red ([2]; 8° C., 1 days): 3.19 µg/mL | Stability of Cannabinoids in AB Red ([2]; 8° C., 2 days): 3.17 µg/mL | Stability of Cannabinoids in AB Red ([2]; 8° C., 3 days): 3.20 µg/mL | Stability of Cannabinoids in AB Red ([2]; 8° C., 5 days): 3.24 µg/mL | Stability of Cannabinoids in AB Red ([2]; 8° C., 8 days): 3.17 µg/mL | Stability of Cannabinoids in AB Red ([2]; 8° C., 9 days): 3.14 µg/mL | Stability of Cannabinoids in AB Red ([2]; 8° C., 10 days): 3.14 µg/mL | Stability of Cannabinoids in AB Red ([2]; 8° C., 11 days): 3.24 µg/mL | Stability of Cannabinoids in AB Red ([2]; 8° C., 12 days): 3.25 µg/mL | Stability of Cannabinoids in AB Red ([2]; 8° C., 15 days): 3.19 µg/mL | Stability of Cannabinoids in AB Red ([2]; 8° C., 16 days): 3.25 µg/mL | Stability of Cannabinoids in AB Red ([2]; 8° C., 17 days): 3.12 µg/mL | Stability of Cannabinoids in AB Red ([2]; 8° C., 18 days): 3.17 µg/mL | Stability of Cannabinoids in AB Red ([2]; 8° C., 19 days): 3.19 µg/mL | Stability of Cannabinoids in AB Red ([2]; 8° C., 22 days): 3.22 µg/mL | Stability of Cannabinoids in AB Red ([2]; 8° C., 23 days): 3.25 µg/mL | Stability of Cannabinoids in AB Red ([2]; 8° C., 24 days): 3.15 µg/mL | Stability of Cannabinoids in AB Red ([2]; 8° C., 25 days): 3.25 µg/mL | Stability of Cannabinoids in AB Red ([2]; 8° C., 26 days): 3.13 µg/mL | Stability of Cannabinoids in AB Red ([2]; 8° C., 29 days): 3.22 µg/mL | Stability of Cannabinoids in AB Red ([2]; 8° C., 30 days): 3.20 µg/mL | Stability of Cannabinoids in AB Red ([2]; 8° C., 60 days): 3.11 µg/mL | Stability of Cannabinoids in AB Red ([2]; 8° C., 90 days): 3.10 µg/mL | Stability of Cannabinoids in AB Red ([2]; 8° C., 120 days): 3.10 µg/mL | Stability of Cannabinoids in AB Red ([2]; 8° C., 150 days): 3.15 µg/mL | Stability of Cannabinoids in AB Red ([2]; 8° C., 180 days): 3.10 µg/mL | Stability of Cannabinoids in AB Red ([2]; 8° C., 210 days): 3.15 µg/mL | Stability of Cannabinoids in AB Red ([2]; 8° C., 240 days): 3.08 µg/mL | Stability of Cannabinoids in AB Red ([2]; 8° C., 270 days): 3.15 µg/mL | Stability of Cannabinoids in AB Red ([2]; 8° C., 300 days): 3.15 µg/mL | Stability of Cannabinoids in AB Red ([2]; 8° C., 330 days): 3.15 µg/mL | Stability of Cannabinoids in AB Red ([2]; 8° C., 390 days): 3.08 µg/mL | Stability of Cannabinoids in AB Red ([2]; 8° C., 420 days): 3.13 µg/mL | Stability of Cannabinoids in AB Red ([2]; 8° C., 450 days): 3.08 µg/mL | Stability of Cannabinoids in AB Red ([2]; 8° C., 480 days): 3.05 µg/mL | Stability of Cannabinoids in AB Red ([2]; 8° C., 510 days): 2.95 µg/mL | Stability of Cannabinoids in AB Red ([2]; 8° C., 540 days): 2.99 µg/mL | Stability of Cannabinoids in AB Red ([2]; 8° C., 570 days): 2.95 µg/mL | Stability of Cannabinoids in AB Red ([2]; 21-25° C., 0 days): 3.22 µg/mL | Stability of Cannabinoids in AB Red ([2]; 21-25° C., 1 days): 3.13 µg/mL | Stability of Cannabinoids in AB Red ([2]; 21-25° C., 2 days): 3.20 µg/mL | Stability of Cannabinoids in AB Red ([2]; 21-25° C., 3 days): 3.25 µg/mL | Stability of Cannabinoids in AB Red ([2]; 21-25° C., 5 days): 3.25 µg/mL | Stability of Cannabinoids in AB Red ([2]; 21-25° C., 8 days): 3.19 µg/mL | Stability of Cannabinoids in AB Red ([2]; 21-25° C., 9 days): 3.17 µg/mL | Stability of Cannabinoids in AB Red ([2]; 21-25° C., 10 days): 3.09 µg/mL | Stability of Cannabinoids in AB Red ([2]; 21-25° C., 11 days): 3.24 µg/mL | Stability of Cannabinoids in AB Red ([2]; 21-25° C., 12 days): 3.24 µg/mL | Stability of Cannabinoids in AB Red ([2]; 21-25° C., 15 days): 3.20 µg/mL | Stability of Cannabinoids in AB Red ([2]; 21-25° C., 16 days): 3.20 µg/mL | Stability of Cannabinoids in AB Red ([2]; 21-25° C., 17 days): 3.11 µg/mL | Stability of Cannabinoids in AB Red ([2]; 21-25° C., 18 days): 3.19 µg/mL | Stability of Cannabinoids in AB Red ([2]; 21-25° C., 19 days): 3.19 µg/mL | Stability of Cannabinoids in AB Red ([2]; 21-25° C., 22 days): 3.18 µg/mL | Stability of Cannabinoids in AB Red ([2]; 21-25° C., 23 days): 3.23 µg/mL | Stability of Cannabinoids in AB Red ([2]; 21-25° C., 24 days): 3.25 µg/mL | Stability of Cannabinoids in AB Red ([2]; 21-25° C., 25 days): 3.24 µg/mL | Stability of Cannabinoids in AB Red ([2]; 21-25° C., 26 days): 3.11 µg/mL | Stability of Cannabinoids in AB Red ([2]; 21-25° C., 29 days): 3.15 µg/mL | Stability of Cannabinoids in AB Red ([2]; 21-25° C., 30 days): 3.15 µg/mL | Stability of Cannabinoids in AB Red ([2]; 21-25° C., 60 days): 3.18 µg/mL | Stability of Cannabinoids in AB Red ([2]; 21-25° C., 90 days): 3.05 µg/mL | Stability of Cannabinoids in AB Red ([2]; 21-25° C., 120 days): 3.09 µg/mL | Stability of Cannabinoids in AB Red ([2]; 21-25° C., 150 days): 3.17 µg/mL | Stability of Cannabinoids in AB Red ([2]; 21-25° C., 180 days): 3.10 µg/mL | Stability of Cannabinoids in AB Red ([2]; 21-25° C., 210 days): 3.03 µg/mL | Stability of Cannabinoids in AB Red ([2]; 21-25° C., 240 days): 3.18 µg/mL | Stability of Cannabinoids in AB Red ([2]; 21-25° C., 270 days): 3.04 µg/mL | Stability of Cannabinoids in AB Red ([2]; 21-25° C., 300 days): 3.14 µg/mL | Stability of Cannabinoids in AB Red ([2]; 21-25° C., 330 days): 3.19 µg/mL | Stability of Cannabinoids in AB Red ([2]; 21-25° C., 390 days): 3.04 µg/mL | Stability of Cannabinoids in AB Red ([2]; 21-25° C., 420 days): 3.10 µg/mL | Stability of Cannabinoids in AB Red ([2]; 21-25° C., 450 days): 3.14 µg/mL | Stability of Cannabinoids in AB Red ([2]; 21-25° C., 480 days): 3.04 µg/mL | Stability of Cannabinoids in AB Red ([2]; 21-25° C., 510 days): 3.01 µg/mL | Stability of Cannabinoids in AB Red ([2]; 21-25° C., 540 days): 2.95 µg/mL | Stability of Cannabinoids in AB Red ([2]; 21-25° C., 570 days): 2.98 µg/mL
